In patent publication US7998989B2, “2-Imino-1,3-thiazoline-based compounds and T-type calcium channel inhibitors containing the same” (Korea Institute of Science and Technology, priority 2007, dated 2011):

How the values were obtained:
[1] = target: T1, α1G T-type calcium channel (Homo sapiens, UniProt O43497); assay: Assay for % inhibiting activity against T-type calcium channel using FDSS6000 (fluo-3 calcium imaging, KCl activation); format: cell-based; conditions: HEK293, 10 μM; HEK293 cells stably expressing α1G T-type calcium channel and Kir2.1; compounds of the examples; read-out: FDSS (% inhibition)/10uM
T1 construct: host or cells: HEK293
T1 sequence (O43497 whole entry): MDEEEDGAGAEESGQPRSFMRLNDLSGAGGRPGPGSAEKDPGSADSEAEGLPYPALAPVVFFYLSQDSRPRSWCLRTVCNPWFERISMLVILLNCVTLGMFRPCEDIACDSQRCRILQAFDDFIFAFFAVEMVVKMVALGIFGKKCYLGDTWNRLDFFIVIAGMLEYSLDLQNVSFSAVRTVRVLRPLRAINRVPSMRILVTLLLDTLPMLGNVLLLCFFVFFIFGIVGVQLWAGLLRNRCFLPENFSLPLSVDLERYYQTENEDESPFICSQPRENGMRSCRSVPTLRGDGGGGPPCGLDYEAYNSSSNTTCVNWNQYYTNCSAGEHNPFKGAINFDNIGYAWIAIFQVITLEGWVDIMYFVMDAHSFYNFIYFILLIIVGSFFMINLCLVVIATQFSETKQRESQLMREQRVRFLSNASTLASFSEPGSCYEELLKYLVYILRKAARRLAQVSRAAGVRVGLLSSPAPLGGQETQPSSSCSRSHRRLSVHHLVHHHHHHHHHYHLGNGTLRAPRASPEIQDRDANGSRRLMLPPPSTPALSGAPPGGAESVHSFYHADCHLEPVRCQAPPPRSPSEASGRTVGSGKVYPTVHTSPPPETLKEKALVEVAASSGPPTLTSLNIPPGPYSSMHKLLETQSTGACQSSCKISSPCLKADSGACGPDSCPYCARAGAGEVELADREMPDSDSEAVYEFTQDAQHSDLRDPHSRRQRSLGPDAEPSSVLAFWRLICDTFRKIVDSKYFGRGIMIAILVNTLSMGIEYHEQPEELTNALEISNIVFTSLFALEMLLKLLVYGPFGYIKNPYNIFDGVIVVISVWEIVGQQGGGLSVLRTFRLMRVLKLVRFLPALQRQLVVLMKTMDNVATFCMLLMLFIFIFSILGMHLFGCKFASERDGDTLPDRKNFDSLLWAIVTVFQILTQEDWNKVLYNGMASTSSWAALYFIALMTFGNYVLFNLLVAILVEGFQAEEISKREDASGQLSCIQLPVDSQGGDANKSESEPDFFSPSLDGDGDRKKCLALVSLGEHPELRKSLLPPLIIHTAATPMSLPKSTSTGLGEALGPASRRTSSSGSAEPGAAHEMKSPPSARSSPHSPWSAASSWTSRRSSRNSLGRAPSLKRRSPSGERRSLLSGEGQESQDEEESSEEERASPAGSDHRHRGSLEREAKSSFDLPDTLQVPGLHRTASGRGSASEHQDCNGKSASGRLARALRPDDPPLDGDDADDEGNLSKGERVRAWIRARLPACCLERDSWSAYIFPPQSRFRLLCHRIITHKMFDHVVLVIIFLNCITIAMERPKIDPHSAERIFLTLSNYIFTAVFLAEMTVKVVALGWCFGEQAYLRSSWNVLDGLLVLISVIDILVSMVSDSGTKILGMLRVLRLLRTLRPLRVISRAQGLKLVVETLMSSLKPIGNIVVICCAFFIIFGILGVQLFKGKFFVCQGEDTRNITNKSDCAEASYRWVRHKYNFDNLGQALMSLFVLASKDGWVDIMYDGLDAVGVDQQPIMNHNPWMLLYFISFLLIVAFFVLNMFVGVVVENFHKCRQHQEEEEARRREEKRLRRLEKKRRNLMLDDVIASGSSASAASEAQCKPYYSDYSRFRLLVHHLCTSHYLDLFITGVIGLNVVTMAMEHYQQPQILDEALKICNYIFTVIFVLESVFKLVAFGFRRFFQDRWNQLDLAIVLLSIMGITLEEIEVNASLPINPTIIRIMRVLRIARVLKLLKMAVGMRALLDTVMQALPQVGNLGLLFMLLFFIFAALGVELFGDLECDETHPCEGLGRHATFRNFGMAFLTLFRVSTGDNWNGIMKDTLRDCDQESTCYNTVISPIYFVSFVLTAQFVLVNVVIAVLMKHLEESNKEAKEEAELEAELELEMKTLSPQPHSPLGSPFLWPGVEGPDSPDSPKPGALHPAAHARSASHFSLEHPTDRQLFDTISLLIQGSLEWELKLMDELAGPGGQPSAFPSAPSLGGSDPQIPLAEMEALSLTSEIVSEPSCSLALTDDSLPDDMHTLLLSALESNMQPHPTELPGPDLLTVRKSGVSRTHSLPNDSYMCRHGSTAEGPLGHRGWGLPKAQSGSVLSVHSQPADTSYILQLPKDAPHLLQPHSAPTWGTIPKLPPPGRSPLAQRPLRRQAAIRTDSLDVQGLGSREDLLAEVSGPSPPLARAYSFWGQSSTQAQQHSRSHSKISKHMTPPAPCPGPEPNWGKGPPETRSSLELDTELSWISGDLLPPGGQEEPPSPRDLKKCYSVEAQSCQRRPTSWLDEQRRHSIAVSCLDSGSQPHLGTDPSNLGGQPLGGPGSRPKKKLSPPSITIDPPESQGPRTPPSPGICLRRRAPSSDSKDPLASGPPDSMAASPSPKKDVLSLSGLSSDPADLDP
Procedure, shortened: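 HEK293 cells stably expressing α1G and Kir2.1 loaded with 5 μM fluo-3/AM, then in HEPES buffer (pH 7.4) with 10 mM CaCl2. Compound applied 75 s before 75 mM KCl; intracellular Ca2+ read as […] area, % inhibition relative to untreated control.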

Row | Structure (SMILES) | inhibition at 10 µM [1] [%] | melting point [°C]
1 | CC1SC(=NC2CCCCC2)N(C)C1CC(=O)Nc1cccc(F)c1.Cl (centres unmarked) [KHG24636, (2-cyclohexylimino-3,5-dimethyl-1,3-thiazolidine-4-yl)-N-(3-fluorophenyl)-acetamide hydrochloride] | 35.2 | 257 to 259
2 | CC1SC(=NC2CCCCCC2)N(C)C1CC(=O)Nc1ccccc1.Cl (centres unmarked) [KHG24638, (2-cycloheptylimino-3,5-dimethyl-1,3-thiazolidine-4-yl)-N-phenyl-acetamide hydrochloride] | 40.8 | 236 to 238
3 | Cc1ccc(NC(=O)CC2C(C)SC(=NC3CCCCCC3)N2C)cc1.Cl (centres unmarked) [KHG24639, (2-cycloheptylimino-3,5-dimethyl-1,3-thiazolidine-4-yl)-N-(4-methylphenyl)-acetamide hydrochloride] | 48.5 | 248 to 250
4 | CC1SC(=NC2CCCCCC2)N(C)C1CC(=O)Nc1ccccc1F.Cl (centres unmarked) [KHG24640, (2-cycloheptylimino-3,5-dimethyl-1,3-thiazolidine-4-yl)-N-(2-fluorophenyl)-acetamide hydrochloride] | 39.6 | 197 to 199
5 | CC1SC(=NC2CCCCCC2)N(C)C1CC(=O)Nc1cccc(F)c1.Cl (centres unmarked) [KHG24641, (2-cycloheptylimino-3,5-dimethyl-1,3-thiazolidine-4-yl)-N-(3-fluorophenyl)-acetamide hydrochloride] | 63.5 | 247 to 249
6 | CC1SC(=NC2CCCCCC2)N(C)C1CC(=O)Nc1ccc([N+](=O)[O-])cc1.Cl (centres unmarked) [KHG24642, (2-cycloheptylimino-3,5-dimethyl-1,3-thiazolidine-4-yl)-N-(4-nitrophenyl)-acetamide hydrochloride] | 66.7 | 255 to 258
7 | CC1SC(=NC2CCCCCC2)N(C)C1CC(=O)Nc1ccc(Cl)cc1.Cl (centres unmarked) [KHG24643, (2-cycloheptylimino-3,5-dimethyl-1,3-thiazolidine-4-yl)-N-(4-chlorophenyl)-acetamide hydrochloride] | 65.4 | 240 to 242
8 | CC1SC(=NC2CCCCCC2)N(C)C1CC(=O)Nc1cc(Cl)cc(Cl)c1.Cl (centres unmarked) [KHG24644, (2-cycloheptylimino-3,5-dimethyl-1,3-thiazolidine-4-yl)-N-(3,5-dichlorophenyl)-acetamide hydrochloride] | 53.4 | 248 to 250
9 | CC1SC(=NC2CCCCCC2)N(C)C1CC(=O)Nc1cc([N+](=O)[O-])ccc1F.Cl (centres unmarked) [KHG24645, (2-cycloheptylimino-3,5-dimethyl-1,3-thiazolidine-4-yl)-N-(2-fluoro-5-nitrophenyl)-acetamide hydrochloride] | 48.4 | 248 to 251
10 | CC1SC(=NC2CCCCCC2)N(C)C1CC(=O)Nc1cc(C(F)(F)F)cc(C(F)(F)F)c1.Cl (centres unmarked) [KHG24646, (2-cycloheptylimino-3,5-dimethyl-1,3-thiazolidine-4-yl)-N-(3,5-ditrifluoromethylphenyl)-acetamide hydrochloride] | 58.1 | 217 to 219
11 | CC1SC(=NC2CCCCCC2)N(C)C1CC(=O)Nc1ccc(OC(F)(F)F)cc1.Cl (centres unmarked) [KHG24647, (2-cycloheptylimino-3,5-dimethyl-1,3-thiazolidine-4-yl)-N-(4-trifluoromethoxyphenyl)-acetamide hydrochloride] | 62.4 | 247 to 271
12 | CC1SC(=NC2CCCC2)N(C)C1CC(=O)Nc1ccc(C(C)(C)C)cc1.Cl (centres unmarked) [KHG24656, (2-cyclopentylimino-3,5-dimethyl-1,3-thiazolidine-4-yl)-N-(4-t-butylphenyl)-acetamide hydrochloride] | 46.1 | 220 to 223
13 | CC1SC(=NC2CCCC2)N(C)C1CC(=O)Nc1ccc(Cl)cc1.Cl (centres unmarked) [KHG24657, (2-cyclopentylimino-3,5-dimethyl-1,3-thiazolidine-4-yl)-N-(4-chlorophenyl)-acetamide hydrochloride] | 48 | 201 to 203
